Data taken from patent US20200390722A1, “COMPOSITIONS AND METHODS FOR THE REMOVAL OF EAR WAX” (Specialty Drug and Device, LLC, priority 2016, published 2020).

Experiments:
accumulation of ear wax [1] = experiment: Prophylaxis to prevent or retard accumulation of ear wax, one dog (Example 4); format: in vivo
Procedure: (§1) The effectiveness of F6H8 as a prophylaxis to prevent or retard accumulation of ear wax was evaluated in one human and one dog. The ear canal of the person and the canine were cleaned thoroughly prior to the evaluation of prophylaxis with SFA. Then, on a regular basis (five of seven days on average), 20-25 ul of F6H8 were applied to a cotton bud and the right ear only of each subjects was gently swabbed for about 15 seconds. In each instance, the contralateral ear served as a control in this study. […] Visual observation was confirmed by using a clean cotton bud to swab each ear of both subjects for 10-15 seconds.

[2] = Cotton bud laden with human ear wax swirled through about 1 ml F6H8 (initial studies, Example 1); details: human cerumen on cotton bud swirled or shaken in F6H8; hair particles etc. not dissolved
Description: (§2) In these studies, which are reflected below in Table 1, samples of ear wax were collected on cotton buds from animals or humans. A portion of each sample was placed into a small tube containing an SFA (F6H8) and gently shaken.
(§3) The invention is based in substantial part upon initial studies that provided surprising results. A small quantity of F6H8 semi-fluorinated alkane was placed into each of 5 test tubes. Samples of cerumen from animal or human ears were collected on cotton buds. Sufficient ear wax was collected that quantities of the material were visible on cotton buds used to harvest the materials. Separate cotton buds were used to collect cerumen from four dogs and two humans. In a step-wise manner, one cotton bud, laden with ear wax, was gently swirled through a single test tube containing an aliquot of F6H8 SFA. The study was repeated three times for cotton buds with ear wax from dogs and a second series of two tests, as previously described, were carried-out with cotton buds laden with human cerumen. […] Importantly, in the study the cerumen was dissolved by the SFA but the other matter (hair particles, etc.) were not dissolved. […] Such products include MURINE® Ear Drops, DEBROX® Earwax Removal, Flents Earwax Remover, and CERUMENEX® and also includes patents for compositions containing glycerin, glycols, peroxide plus urea and cyclodextrin containing compositions. […]

[3] = Cotton bud laden with dog ear wax swirled through about 1 ml F6H8 (initial studies, Example 1); details: dog cerumen on cotton bud swirled or shaken in F6H8; hair particles etc. not dissolved
Description: as §2, §3

[4] = Test-tube comparison of SFA (F6H8) and common remedies on about 100 mg human ear wax (Example 2); parameters: key to Effects on Ear Wax (Cerumen) Samples: NC, No Change; BP, Bubbles Produced; SG, Softening; FD, Fully Dispersed; details: for Effects on Ear Wax (Cerumen) Samples: Human; for Visible changes to ear wax samples (in words): human, 30 seconds with gentle agitation
Procedure: (§4) Approximately 100 mg of human ear wax was weighed into each of four small test tubes and numbered 1-4. In a second series, approximately 100 mg of animal cerumen from dogs was placed into four different test tubes and numbered 5-8. About 1 ml of the following material was then added to the respective dishes as follows: (1) to tubes #1 and 5, F6H8; (2) to tubes #2 and 6, hydrogen peroxide, 3%; (3) to tubes #3 and 7, carbamide peroxide, 6.5% (Murine Earwax Removal Drops); and (4) to tubes #4 and 8, sodium bicarbonate, 5% (prepared by dissolved 5 grams of sodium bicarbonate in 100 ml of distilled water. Results of these studies are presented in Table 1, below.

accumulation of ear wax [5] = experiment: Prophylaxis to prevent or retard accumulation of ear wax, one human (Example 4); format: in vivo
Procedure: as §1

[6] = Test-tube comparison of SFA (F6H8) and common remedies on about 100 mg dog cerumen (Example 2); parameters: key to Effects on Ear Wax (Cerumen) Samples: NC, No Change; BP, Bubbles Produced; SG, Softening; FD, Fully Dispersed; details: for Effects on Ear Wax (Cerumen) Samples: Dog; for Visible changes to ear wax samples (in words): dog, 30 seconds with gentle agitation
Procedure: as §4

[7] = 20-25 ul on cotton bud, about five of seven days, end of three month trial
[8] = swab 10-15 seconds at end of three month trial
[9] = 30 Seconds, about 1 ml on approx. 100 mg ear wax, gentle agitation
[10] = 30 Seconds, about 1 ml on approx. 100 mg cerumen, gentle agitation

Row | Compound | Visual observation of treated right ear vs untreated contralateral ear (accumulation of ear wax [1]; [7]) | Ear wax collected by clean cotton bud from treated right ear vs untreated left ear (accumulation of ear wax [1]; [8]) | Dissolution of cerumen from the ear wax sample (in words) [2] | Dissolution of cerumen from the ear wax sample (in words) [3] | Effects on Ear Wax (Cerumen) Samples ([4]; 5 Minutes) | Effects on Ear Wax (Cerumen) Samples ([4]; 15 Minutes) | Effects on Ear Wax (Cerumen) Samples [4, 9] | Visual observation of treated right ear vs untreated contralateral ear (accumulation of ear wax [5]; [7]) | Ear wax collected by clean cotton bud from treated right ear vs untreated left ear (accumulation of ear wax [5]; [8]) | Effects on Ear Wax (Cerumen) Samples ([6]; 5 Minutes) | Effects on Ear Wax (Cerumen) Samples ([6]; 15 Minutes) | Effects on Ear Wax (Cerumen) Samples [6, 10] | Visible changes to ear wax samples (in words) [4] | Visible changes to ear wax samples (in words) [6]
1 | CCCCCCCCC(F)(F)C(F)(F)C(F)(F)C(F)(F)C(F)(F)C(F)(F)F [SFA (F6H8)] | visibly cleaner and contained less ear wax and associated hair and other debris | collected less ear wax | dissolved completely | dissolved completely | FD | FD | FD | visibly cleaner and contained less ear wax and associated hair and other debris | collected less ear wax | FD | FD | FD | – | –
2 | OO [Hydrogen Peroxide, 3%, hydrogen peroxide] | – | – | – | – | BP | SG and BP, | NC | – | – | BP | SG and BP, | NC | failed to produce visible changes | failed to produce visible changes
3 | O=C([O-])O.[Na+] [Sodium Bicarbinate, 5%, sodium bicarbonate] | – | – | – | – | NC | NC | NC | – | – | NC | NC | NC | failed to produce visible changes | failed to produce visible changes
